Columns and labels:
[1] = target: T1, TBK1 (Homo sapiens, UniProt Q9UHD2); assay: IFN-β luciferase reporter assay in HEK293T cells, TBK1 driven; conditions: 0.31-2.5µM, 16 h (Figure 2)
T1 sequence (Q9UHD2 1-729): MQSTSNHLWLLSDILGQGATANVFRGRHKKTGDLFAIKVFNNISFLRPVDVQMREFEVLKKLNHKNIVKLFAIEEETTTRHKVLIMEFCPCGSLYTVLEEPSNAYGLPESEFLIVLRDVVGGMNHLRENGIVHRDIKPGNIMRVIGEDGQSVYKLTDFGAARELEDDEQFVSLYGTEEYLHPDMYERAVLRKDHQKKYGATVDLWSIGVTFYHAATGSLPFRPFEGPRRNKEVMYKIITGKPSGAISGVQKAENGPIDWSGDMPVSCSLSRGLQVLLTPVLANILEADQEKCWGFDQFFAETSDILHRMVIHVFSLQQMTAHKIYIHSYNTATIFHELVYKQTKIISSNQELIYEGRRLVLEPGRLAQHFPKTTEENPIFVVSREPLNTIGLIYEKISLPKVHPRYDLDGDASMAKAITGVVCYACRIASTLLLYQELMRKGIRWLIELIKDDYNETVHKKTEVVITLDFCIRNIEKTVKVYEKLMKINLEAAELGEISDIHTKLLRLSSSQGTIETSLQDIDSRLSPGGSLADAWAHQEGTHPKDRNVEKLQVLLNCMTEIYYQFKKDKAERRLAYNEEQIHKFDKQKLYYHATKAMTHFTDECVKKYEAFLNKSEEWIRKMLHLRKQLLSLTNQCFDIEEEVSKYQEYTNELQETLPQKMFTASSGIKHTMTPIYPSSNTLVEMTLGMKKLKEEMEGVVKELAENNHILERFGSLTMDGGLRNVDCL

[2] = target: T2, RIG-I (Homo sapiens, UniProt O95786); assay: IFN-β luciferase reporter assay in HEK293T cells, RIG-I driven (counter-screen and validation)
T2 sequence (O95786 1-925): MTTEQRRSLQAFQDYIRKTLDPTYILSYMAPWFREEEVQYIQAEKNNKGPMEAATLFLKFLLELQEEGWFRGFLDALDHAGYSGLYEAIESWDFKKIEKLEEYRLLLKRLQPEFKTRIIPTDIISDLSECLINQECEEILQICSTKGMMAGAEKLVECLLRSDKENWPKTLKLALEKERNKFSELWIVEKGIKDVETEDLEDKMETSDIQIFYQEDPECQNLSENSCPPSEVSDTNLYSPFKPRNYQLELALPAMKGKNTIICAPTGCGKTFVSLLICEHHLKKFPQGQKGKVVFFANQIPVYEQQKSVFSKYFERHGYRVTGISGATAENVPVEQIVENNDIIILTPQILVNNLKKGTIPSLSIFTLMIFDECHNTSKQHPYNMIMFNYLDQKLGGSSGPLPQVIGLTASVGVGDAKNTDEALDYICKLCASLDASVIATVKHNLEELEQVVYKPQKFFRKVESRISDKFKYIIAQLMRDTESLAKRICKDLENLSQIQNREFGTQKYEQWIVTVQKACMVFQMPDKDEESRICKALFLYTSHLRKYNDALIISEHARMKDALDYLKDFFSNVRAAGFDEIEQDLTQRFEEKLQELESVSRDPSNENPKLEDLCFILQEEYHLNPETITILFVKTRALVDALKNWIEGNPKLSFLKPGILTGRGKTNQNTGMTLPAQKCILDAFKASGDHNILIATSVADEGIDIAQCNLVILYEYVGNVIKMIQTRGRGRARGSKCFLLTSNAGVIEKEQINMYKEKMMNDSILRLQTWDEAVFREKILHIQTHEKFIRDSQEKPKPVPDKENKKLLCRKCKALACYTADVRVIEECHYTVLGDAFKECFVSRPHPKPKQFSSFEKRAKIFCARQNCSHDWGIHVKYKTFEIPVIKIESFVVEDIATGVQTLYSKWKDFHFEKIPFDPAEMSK

For `CCc1ccc(NC(=O)Nc2c[nH]c3ccccc23)cc1` [F2740-0151, 1-(4-ethylphenyl)-3-(1H-indol-3-yl)urea], the “TBK1-mediated type I IFN induction” value [1] was “failed to suppress”, the “RIG-I-mediated type I IFN induction” value ([2]; 0.31-2.5µM, 16 h (Figure 2)) was “failed to suppress” and the “RIG-I driven activation of the IFN-β reporter” value ([2]; counter-screen of hits from the primary screen) was “but not RIG-I-dependent type I IFN induction”.

Source: patent EP3556362A1, “STING INHIBITORS” (ECOLE POLYTECHNIQUE FEDERALE DE LAUSANNE (EPFL), priority 2018, dated 2019)
